The supplement of paper PMC4862054

What was measured:
Conditions in all cases: incubation time: 72 h
BT-474 = assay: drug sensitivity score (DSS), CellTiter-Blue viability (DSS (AUC-based score)); higher = stronger viability inhibition; extreme values may be limits of the assay
Method: (§1)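 DSRT with the CellTiter-Blue (resazurin reduction) viability readout, fluorescence 560/590 nm, 72 h incubation. Plates were normalised to DMSO and benzethonium chloride controls. DSS is computed from the area under the fitted dose-response curve (5 or 9 concentrations).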

BT-549 [1] = assay: as above
Method: as §1

CAL-120 [2] = assay: as above
Method: as §1

CAL-148 = assay: as above
Method: as §1

CAL-51 = assay: as above
Method: as §1

CAL-85-1 [3] = assay: as above
Method: as §1

DU-4475 = assay: as above
Method: as §1

HCC1143 [4] = assay: as above
Method: as §1

HCC1599 = assay: as above
Method: as §1

HCC1937 = assay: as above
Method: as §1

HDQ-P1 = assay: as above
Method: as §1

Hs578T [5] = assay: as above
Method: as §1

MDA-MB-231 = assay: as above
Method: as §1

MDA-MB-436 = assay: as above
Method: as §1

MDA-MB-453 = assay: as above
Method: as §1

MDA-MB-468 [6] = assay: as above
Method: as §1

MFM-223 = assay: as above
Method: as §1

SK-BR-3 = assay: as above
Method: as §1

BT-549 [7] = assay: drug sensitivity score (DSS), CellTox Green (DSS (AUC-based score)); higher = stronger drug effect (viability inhibition or cytotoxicity); extreme values may be limits of the assay
Method in brief: (§2)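 In 384-well plates, compound was laid out at 5 concentrations in 10-fold steps over a 10,000-fold range specific to each compound, and breast cancer cell lines were seeded on top in 20 µl suspension for a 72 h incubation. CellTox Green fluorescence and then CellTiter-Glo luminescence were read, and each plate was normalised to 0.1 % DMSO and a positive kill control. The drug sensitivity score was calculated from the area under the fitted dose-response curve.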

CAL-120 [8] = assay: as above
Method in brief: as §2

CAL-85-1 [9] = assay: as above
Method in brief: as §2

HCC1143 [10] = assay: as above
Method in brief: as §2

Hs578T [11] = assay: as above
Method in brief: as §2

MCF-10A = assay: as above
Method in brief: as §2

MDA-MB-468 [12] = assay: as above
Method in brief: as §2

| SMILES | drug sensitivity score (BT-474) | drug sensitivity score (BT-549 [1]) | drug sensitivity score (CAL-120 [2]) | drug sensitivity score (CAL-148) | drug sensitivity score (CAL-51) | drug sensitivity score (CAL-85-1 [3]) | drug sensitivity score (DU-4475) | drug sensitivity score (HCC1143 [4]) | drug sensitivity score (HCC1599) | drug sensitivity score (HCC1937) | drug sensitivity score (HDQ-P1) | drug sensitivity score (Hs578T [5]) | drug sensitivity score (MDA-MB-231) | drug sensitivity score (MDA-MB-436) | drug sensitivity score (MDA-MB-453) | drug sensitivity score (MDA-MB-468 [6]) | drug sensitivity score (MFM-223) | drug sensitivity score (SK-BR-3) | drug sensitivity score (BT-549 [7]) | drug sensitivity score (CAL-120 [8]) | drug sensitivity score (CAL-85-1 [9]) | drug sensitivity score (HCC1143 [10]) | drug sensitivity score (Hs578T [11]) | drug sensitivity score (MCF-10A) | drug sensitivity score (MDA-MB-468 [12]) |
| --- | --- | --- | --- | --- | --- | --- | --- | --- | --- | --- | --- | --- | --- | --- | --- | --- | --- | --- | --- | --- | --- | --- | --- | --- | --- |
| C/C(=C\c1csc(C)n1)[C@@H]1C[C@@H]2O[C@]2(C)CCC[C@H](C)[C@H](O)[C@@H](C)C(=O)C(C)(C)[C@@H](O)CC(=O)O1 [Patupilone] | 18.2 | 22.4 | 19.8 | 24.8 | 20.4 | 24.6 | 22.3 | 16.3 | 1.08 | 27 | 12.2 | 23.1 | 28.5 | 15.4 | 22.5 | 15.3 | 12.7 | 23.7 | 0 | 2.68 | 14.4 | 0.908 | 7.9 | 7.87 | 25.1 |
| CNNCc1ccc(C(=O)NC(C)C)cc1 [Procarbazine] | 0 | 0 | 0 | 0 | 0 | 0 | 0 | 0 | 0 | 0 | 0 | 0 | 0 | 0.866 | 0 | 0 | 0 | 0 | 0 | 0 | 1.2 | 0 | 0 | 0 | 3.72 |
| CN1CCN(CCOc2cc(OC3CCOCC3)c3c(Nc4c(Cl)ccc5c4OCO5)ncnc3c2)CC1 [Saracatinib] | 5.44 | 5 | 4.64 | 1.9 | 8.13 | 9.72 | 0 | 0 | 0.195 | 0 | 11.5 | 0 | 7.77 | 0.375 | 4.51 | 4.05 | 0 | 3.37 | 0 | 0 | 6.93 | 0 | 0 | 0 | 0 |
| Cn1cncc1[C@@](N)(c1ccc(Cl)cc1)c1ccc2c(c1)c(-c1cccc(Cl)c1)cc(=O)n2C [Tipifarnib] | 5.35 | 5.66 | 12.4 | 18.8 | 9.74 | 6.87 | 18.5 | 14.7 | 9.57 | 15.3 | 13.3 | 5.75 | 11.7 | 0 | 10.5 | 3.09 | 7.2 | 12.6 | 0 | 0 | 0.98 | 0 | 0 | 0 | 0 |
| O=C1NC(=O)[C@@H](c2cn3c4c(cccc24)CCC3)[C@@H]1c1c[nH]c2ccccc12 [Tivantinib] | 1.07 | 4.05 | 4.4 | 1.69 | 2.15 | 4.04 | 1.35 | 0 | 0.607 | 8.31 | 0 | 2.65 | 1.91 | 7.87 | 6.08 | 1.21 | 0 | 2.61 | 0 | 1.28 | 5.35 | 0 | 5.63 | 0 | 0 |
